Results published in US20190142810A1, “MITOCHONDRIAL INHIBITORS FOR THE TREATMENT OF PROLIFERATION DISORDERS” (Basilea Pharmaceutica International AG, priority 2016, published 2019).

What was measured:
Format in all cases: cell-based
HeLa galactose cells = experiment: Cell growth and proliferation assay of HeLa galactose cells (crystal violet); settings: Homo sapiens, HeLa, 72 h, 72 hours incubation, crystal violet staining, absorbance at 590 nm
Summary of the method: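 HeLa cells adapted stepwise over three weeks to glucose-free galactose medium plus 10 mM galactose, seeded at 2000 cells/well and treated 72 h with compounds (0.001% DMSO) at 37° C. Growth read by crystal violet staining, dye solubilized and absorbance at 590 nm; IC50 from concentration-response curves.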

[1] = test system: HeLa glucose versus HeLa galactose cells; experiment: Cell growth assays (crystal violet) in HeLa galactose and HeLa glucose cells; settings: FIG. 1, crystal violet cell growth assay
Protocol: The cervical tumor cell line HeLa (ATCC, CCL-2) was cultivated in DMEM medium (Invitrogen cat. no. 11971, 4.5 g/L high glucose) containing 10% fetal calf serum (Sigma cat. no. F9665) and 1% Penicillin/Streptomycin (Sigma cat. no. P0781) at 37° C. in 5% CO2. HeLa galactose cells (i.e. HeLa cells that grow in high concentrations of galactose) were generated from HeLa glucose cells (i.e. HeLa cells that grow in high concentrations of glucose) by gradually changing the amount of glucose in the media to zero glucose in the presence of galactose as a sugar source (50% galactose/50% glucose media for one week, then 75% galactose/25% glucose media for one week, to 100% galactose media in the third week). Galactose media (Invitrogen cat. no. 11966) was supplemented with 10 mM galactose (Sigma cat. no. G5388).
Cell Growth and Proliferation Assay of HeLa Galactose and Glucose Cells
HeLa galactose cells and HeLa glucose cells were seeded in 96 well plates (TPP, cat. no 92696) at 2000 and 1500 cells/well, respectively, in 100 μL of complete medium. […] Absorbance at 590 nm was measured using a SpectraMax® 250 plate reader (Molecular Devices). Antiproliferative/growth inhibition IC50s were calculated from concentration-response curves using GraphPad Prism software. […]

[2] = test system: Oxygen consumption (mitochondrial function); experiment: Oxygen consumption assay (MitoXpress probe); settings: 5 h, MitoXpress probe signal, kinetic analysis at 37° C. for 5 hours, compared to untreated cells
Summary of the method: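 Cells seeded at 50′000/well, after 24 h given fresh media with inhibitor at a range of concentrations, then MitoXpress probe under mineral oil. Kinetic TRF read (380 nm excitation, 650 or 665 nm emission) at 37° C. for 5 hours. IC50 = concentration inhibiting 50% of probe signal versus untreated cells.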

Compound	IC50 (HeLa galactose cells) [nM]	differential sensitivity in HeLa glucose versus HeLa galactose cell growth [1]	IC50 [2] [nM]
Cc1nsc(NC(=O)N2CCC(=Cc3c(F)cc(C(F)(F)F)cc3F)CC2)n1 [Example 41, 4-[[2,6-difluoro-4-(trifluoromethyl)phenyl]methylene]-N-(3-methyl-1,2,4-thiadiazol-5-yl)piperidine-1-carboxamide]	23	exhibit differential sensitivity	41
Cc1nsc(NC(=O)N2CCC(=Cc3ccc(F)cc3F)CC2)n1 [Example 59, 4-[(2,4-difluorophenyl)methylene]-N-(3-methyl-1,2,4-thiadiazol-5-yl)piperidine-1-carboxamide]	41		43
Cc1nsc(NC(=O)N2CCC(Cc3ccc(C(C)(C)C)cc3)CC2)n1 [Example 11]	193		1300
Cc1nsc(NC(=O)N2CCC(Cc3ccc(Cl)cc3Cl)CC2)n1 [Example 8]	32		200
Cc1nsc(NC(=O)N2CCC(Cc3ccc(N)cc3)CC2)n1 [Example 4, 4-[(4-aminophenyl)methyl]-N-(3-methyl-1,2,4-thiadiazol-5-yl)piperidine-1-carboxamide]	460		400
COc1cc(CC2CCN(C(=O)Nc3nc(C)ns3)CC2)c(F)cc1Cl [Example 65]	50		126
COc1cc(F)c(C=C2CCN(C(=O)Nc3nc(C)ns3)CC2)cn1 [Example 69]	91		119
Cc1nsc(NC(=O)N2CCC(=Cc3c(F)cc(Cl)cc3F)CC2)n1 [Example 26, 4-[(4-chloro-2,6-difluoro-phenyl)methylene]-N-(3-methyl-1,2,4-thiadiazol-5-yl)piperidine-1-carboxamide]	15		23
COCc1ccc(CC2CCN(C(=O)Nc3nc(C)ns3)CC2)cc1 [Example 6]	31		200
COc1ccc(C(=O)C2CCN(C(=O)Nc3nc(C)ns3)CC2)cc1 [Example 76]	190		332
COc1cc(F)c(CC2CCN(C(=O)Nc3nc(C)ns3)CC2)cn1 [Example 68]	100		179
Antimycin A		differential sensitivity in HeLa glucose versus HeLa galactose cell growth is exhibited	
Cc1nsc(NC(=O)N2CCC(Oc3ccc(Cl)cc3Cl)CC2)n1 [Example 20]	122		369

Now from value to compound, other results behind:

IC50 (HeLa galactose cells) [nM]	Compound	differential sensitivity in HeLa glucose versus HeLa galactose cell growth [1]	IC50 [2] [nM]
28	COc1cc(F)c(C=C2CCN(C(=O)Nc3nc(C)ns3)CC2)c(F)c1 [Example 97, 4-[(2,6-difluoro-4-methoxy-phenyl)methylene]-N-(3-methyl-1,2,4-thiadiazol-5-yl)piperidine-1-carboxamide]		30
251	Cc1nsc(NC(=O)N2CCC(=Cc3ccc(NCCN)cc3F)CC2)n1 [Example 101, 4-[[4-(2-aminoethylamino)-2-fluoro-phenyl]methylene]-N-(3-methyl-1,2,4-thiadiazol-5-yl)piperidine-1-carboxamide]		412
17	Cc1cc(NC(=O)N2CCC(=Cc3c(F)cc(Cl)cc3F)CC2)ccn1 [Example 137, 4-[(4-chloro-2,6-difluoro-phenyl)methylene]-N-(2-methyl-4-pyridyl)piperidine-1-carboxamide]		42
54	Cc1nsc(NC(=O)N2CCCC(=Cc3ccc(C(F)(F)F)cc3F)CC2)n1 [Example 116]		150
21	O=C(Nc1ccnc(C2CC2)c1)N1CCC(=Cc2ccc(Cl)cc2F)CC1 [Example 183, 4-[(4-chloro-2-fluoro-phenyl)methylene]-N-(2-cyclopropyl-4-pyridyl)piperidine-1-carboxamide]		42
11	CCc1cc(NC(=O)N2CCC(=Cc3c(F)cc(C#N)cc3F)CC2)ccn1 [Example 179, 4-[(4-cyano-2,6-difluoro-phenyl)methylene]-N-(2-ethyl-4-pyridyl)piperidine-1-carboxamide]		41
57	Cc1nsc(NC(=O)N2CCC(C(=O)c3ccc(Cl)cc3F)CC2)n1 [Example 92, 4-(4-chloro-2-fluoro-benzoyl)-N-(3-methyl-1,2,4-thiadiazol-5-yl)piperidine-1-carboxamide]		62
